The results in this text go back to patent US11485742B2, “2-azaspiro[3.4]octane derivatives as M4 agonists” (NOVARTIS AG, priority 2019, dated 2022).

In general, EC50 refers to the midpoint of the concentration-response curve.

Assay type in all cases: cell-based
Test [1] concerns the target T1, human cloned CHRM5 receptor (Homo sapiens, UniProt P08912).
T1 construct: expressed in transfected cells; host or cells: CHO (M5_CHO)
T1 sequence (P08912 1-532): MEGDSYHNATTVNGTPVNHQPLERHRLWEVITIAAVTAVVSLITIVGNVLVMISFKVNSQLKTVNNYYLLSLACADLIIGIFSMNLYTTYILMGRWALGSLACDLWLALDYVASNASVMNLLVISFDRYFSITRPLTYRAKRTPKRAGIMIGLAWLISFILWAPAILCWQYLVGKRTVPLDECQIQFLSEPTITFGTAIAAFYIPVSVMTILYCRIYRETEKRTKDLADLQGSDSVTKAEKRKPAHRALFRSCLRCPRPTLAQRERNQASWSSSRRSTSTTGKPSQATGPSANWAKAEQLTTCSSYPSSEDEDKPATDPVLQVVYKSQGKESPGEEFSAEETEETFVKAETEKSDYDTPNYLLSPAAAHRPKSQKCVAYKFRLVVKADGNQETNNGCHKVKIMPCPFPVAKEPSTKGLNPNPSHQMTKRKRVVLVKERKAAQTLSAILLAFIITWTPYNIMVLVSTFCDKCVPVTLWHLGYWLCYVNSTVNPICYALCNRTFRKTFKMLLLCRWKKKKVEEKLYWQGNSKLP
Nature of the test: CHRM5 Ca++ Flux Assay (M5_CHO cells, agonist mode). The settings on record: for Emax / M5 FDSS PA %: Percent Activity (PA) measured to EC100 of Carbachol; for Emax: read-out: M5 FDSS PA %; for EC50: agonist mode, geometric mean if tested more than once, read-out: M5 FDSS EC50. Summed up:
(§1)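 CHO-K1 cells stably expressing human M3 or M5 receptor, dye-loaded ≥1 h, treated with 11-point compound doses in triplicate; Ca++ flux read over 3 min (FDSS). Agonist-mode four-parameter fit; percent activity relative to carbachol EC100; repeat tests reported as geometric mean.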

Test [2] addresses T2, human cloned CHRM3 receptor (Homo sapiens, UniProt P20309).
T2 construct: expressed in transfected cells; host or cells: CHO-K1 (M3_CHO)
Briefly: CHRM3 Ca++ Flux Assay (M3_CHO cells, agonist mode). Conditions: for Emax / M3 FDSS PA %: Percent Activity (PA) measured to EC100 of Carbachol; for Emax: read-out: M3 FDSS PA %; for EC50: agonist mode, geometric mean if tested more than once, read-out: M3 FDSS EC50. Summed up: as §1

The target of test [3] is T3, human cloned CHRM2 receptor (Homo sapiens, UniProt P08172).
T3 construct: expressed in transfected cells; host or cells: CHO-K1 (M2_CHO)
T3 sequence (P08172 1-466): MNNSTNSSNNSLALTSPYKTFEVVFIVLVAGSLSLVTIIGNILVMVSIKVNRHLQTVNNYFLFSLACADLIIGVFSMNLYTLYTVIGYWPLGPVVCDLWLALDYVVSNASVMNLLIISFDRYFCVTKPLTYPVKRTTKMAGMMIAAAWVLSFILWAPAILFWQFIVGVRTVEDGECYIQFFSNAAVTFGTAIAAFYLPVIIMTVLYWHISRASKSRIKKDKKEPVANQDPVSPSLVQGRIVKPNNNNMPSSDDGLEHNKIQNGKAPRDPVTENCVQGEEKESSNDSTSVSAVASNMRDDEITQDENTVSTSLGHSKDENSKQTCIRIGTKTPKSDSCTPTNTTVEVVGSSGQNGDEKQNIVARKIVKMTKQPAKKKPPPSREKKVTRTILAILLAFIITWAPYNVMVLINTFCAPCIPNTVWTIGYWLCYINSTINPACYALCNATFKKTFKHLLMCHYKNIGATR
Briefly: CHRM2 Ca++ Flux Assay (M2_CHO cells, agonist mode). Conditions: M2 CHO cells; for EC50: agonist mode, geometric mean if tested more than once, read-out: M2 FDSS EC50; for Emax / M2 FDSS PA %: Percent Activity (PA) measured to EC100 of Carbachol; for Emax: read-out: M2 FDSS PA %. Summed up:
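CHO-K1 cells stably expressing human CHRM2 were plated overnight at 12K cells/well and loaded with Ca++ dye for 1–2 h. They were then held 60 minutes in HBSS −Ca/−Mg, 20 mM HEPES, 2.5 mM probenecid, 20 μM ATP. Agonist-mode Ca++ flux was read over 3 minutes. Four-parameter fits of triplicates gave percent activity relative to carbachol EC100.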

T2 sequence (P20309 whole entry): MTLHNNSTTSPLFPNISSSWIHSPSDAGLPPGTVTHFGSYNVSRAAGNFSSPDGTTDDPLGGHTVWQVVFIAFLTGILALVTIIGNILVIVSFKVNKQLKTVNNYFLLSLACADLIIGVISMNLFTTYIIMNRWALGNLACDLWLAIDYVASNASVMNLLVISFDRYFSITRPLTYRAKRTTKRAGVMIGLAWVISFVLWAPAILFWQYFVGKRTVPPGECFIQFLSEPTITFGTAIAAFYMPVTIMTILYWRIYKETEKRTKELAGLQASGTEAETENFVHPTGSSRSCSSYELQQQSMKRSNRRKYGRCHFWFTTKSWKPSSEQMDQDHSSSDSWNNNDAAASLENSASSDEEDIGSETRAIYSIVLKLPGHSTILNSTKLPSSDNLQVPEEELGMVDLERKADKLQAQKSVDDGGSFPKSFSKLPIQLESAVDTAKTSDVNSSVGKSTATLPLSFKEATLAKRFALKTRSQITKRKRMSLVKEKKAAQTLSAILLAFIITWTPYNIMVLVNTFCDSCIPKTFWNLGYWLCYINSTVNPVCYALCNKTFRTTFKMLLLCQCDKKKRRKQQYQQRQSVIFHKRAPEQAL

`c1ccc(C2CCN([C@@H]3COC4(C3)CN(c3ncco3)C4)CC2)c(OC2CCOCC2)c1` [Example 4J, (S)-2-(oxazol-2-yl)-7-(4-(2-((tetrahydro-2H-pyran-4-yl)oxy)phenyl)piperidin-1-yl)-5-oxa-2-azaspiro[3.4]octane]: the Emax in test [1], in test [2] and in test [3] was 0% each time. The 50% effective concentration (EC50) in test [1], in test [2] and in test [3] was over 25 µM throughout.
For `c1ccc(C2CCN([C@@H]3COC4(C3)CN(c3nnco3)C4)CC2)c(C2CCOCC2)c1` [Example 3C, (S)-2-(1,3,4-oxadiazol-2-yl)-7-(4-(2-(tetrahydro-2H-pyran-4-yl)phenyl)piperidin-1-yl)-5-oxa-2-azaspiro[3.4]octane], the Emax was found to be 0% in test [1], 0% in test [2] and 34% in test [3]. Further, the figures for the EC50 in test [1], in test [2] and in test [3] were over 25 µM, over 25 µM and 4.82 µM, respectively.
For `C[C@H](Oc1ccc(F)cc1C1CCN([C@@H]2COC3(C2)CN(c2nnco2)C3)CC1)C1CCOCC1` [Example 2X, (S)-7-(4-(5-fluoro-2-((S)-1-(tetrahydro-2H-pyran-4-yl)ethoxy)phenyl)piperidin-1-yl)-2-(1,3,4-oxadiazol-2-yl)-5-oxa-2-azaspiro[3.4]octane or(S)-7-(4-(5-fluoro-2-((R)-1-(tetrahydro-2H-pyran-4-yl)ethoxy)phenyl)piperidin-1-yl)-2-(1,3,4-oxadiazol-2-yl)-5-oxa-2-azaspiro[3.4]octane], in test [1], the “M5 FDSS PA %” value amounted to 0% and the half-maximal effective concentration (EC50) is over 25 µM. Further, in test [2], the “M3 FDSS PA %” value turned out to be 0% and the EC50 was over 25 µM. Moreover, in test [3], the half-maximal effective concentration (EC50) was 11.2 µM and the “M2 FDSS PA %” value is 23%.
Take `OC[C@H]1C[C@H](Oc2ccc(F)cc2C2CCN([C@@H]3COC4(C3)CN(c3nnco3)C4)CC2)C1` (single isomer, unassigned) [Example 2HH, ((1S,3r)-3-(2-(1-((S)-2-(1,3,4-oxadiazol-2-yl)-5-oxa-2-azaspiro[3.4]octan-7-yl)piperidin-4-yl)-4-fluorophenoxy)cyclobutyl)methanol or ((1R,3s)-3-(2-(1-((S)-2-(1,3,4-oxadiazol-2-yl)-5-oxa-2-azaspiro[3.4]octan-7-yl)piperidin-4-yl)-4-fluorophenoxy)cyclobutyl)methanol]: in test [1], the “M5 FDSS PA %” value is 0% and the concentration giving a half-maximal response (EC50) is over 25 µM. Moreover, in test [2], the “M3 FDSS PA %” value is given as 0% and the EC50 is over 25 µM. Also, in test [3], the concentration for a half-maximal effect (EC50) amounted to 6.57 µM and the “M2 FDSS PA %” value was 25%.
Consider `CC(C)(O)[C@H]1C[C@H](Oc2ccc(F)cc2C2CCN([C@@H]3COC4(C3)CN(c3nnco3)C4)CC2)C1` (single isomer, unassigned) [Example 2V, 2-((1S,3r)-3-(2-(1-((S)-2-(1,3,4-oxadiazol-2-yl)-5-oxa-2-azaspiro[3.4]octan-7-yl)piperidin-4-yl)-4-fluorophenoxy)cyclobutyl)propan-2-ol or 2-((1R,3s)-3-(2-(1-((S)-2-(1,3,4-oxadiazol-2-yl)-5-oxa-2-azaspiro[3.4]octan-7-yl)piperidin-4-yl)-4-fluorophenoxy)cyclobutyl)propan-2-ol], for which, in test [1], the “M5 FDSS PA %” value is 0% and the EC50 is over 25 µM. Moreover, in test [2], the “M3 FDSS PA %” value was found to be 0% and the EC50 is over 25 µM. Moreover, in test [3], the 50% effective concentration (EC50) came out at 1.08 µM and the “M2 FDSS PA %” value is recorded as 28%.
`Fc1cc(F)c(OC2CCOCC2)c(C2CCN([C@@H]3COC4(C3)CN(c3nnco3)C4)CC2)c1` [Example 2BB, (S)-7-(4-(3,5-difluoro-2-((tetrahydro-2H-pyran-4-yl)oxy)phenyl)piperidin-1-yl)-2-(1,3,4-oxadiazol-2-yl)-5-oxa-2-azaspiro[3.4]octane]: the Emax in test [1] was 0%; in test [2] it was 0%; in test [3] it was 27%. For the same molecule, the 50% effective concentration (EC50) is over 25 µM in test [1], over 25 µM in test [2] and 4.85 µM in test [3].
Take `Fc1ccc(OC[C@H]2CCO2)c(C2CCN([C@@H]3COC4(C3)CN(c3nncs3)C4)CC2)c1.O=C(O)C(F)(F)F` (single isomer, unassigned) [Example 2C, (S)-7-(4-(5-fluoro-2-(((R)-oxetan-2-yl)methoxy)phenyl)piperidin-1-yl)-2-(1,3,4-thiadiazol-2-yl)-5-oxa-2-azaspiro[3.4]octane trifluoroacetate or (S)-7-(4-(5-fluoro-2-(((S)-oxetan-2-yl)methoxy)phenyl)piperidin-1-yl)-2-(1,3,4-thiadiazol-2-yl)-5-oxa-2-azaspiro[3.4]octane trifluoroacetate]: in test [1], the “M5 FDSS PA %” value is 0% and the half-maximal effective concentration (EC50) is over 25 µM. Moreover, in test [2], the “M3 FDSS PA %” value is recorded as 0% and the EC50 was over 25 µM. Also, in test [3], the 50% effective concentration (EC50) was 0.321 µM and the “M2 FDSS PA %” value was found to be 39%.
`COc1ccccc1C1CCN([C@@H]2COC3(C2)CN(c2ncco2)C3)CC1` [Example 4N, (S)-7-(4-(2-methoxyphenyl)piperidin-1-yl)-2-(oxazol-2-yl)-5-oxa-2-azaspiro[3.4]octane]: the Emax in test [1], in test [2] and in test [3] was 0% throughout. For the same molecule, the concentration giving a half-maximal response (EC50) in test [1], in test [2] and in test [3] was over 25 µM throughout.
As for `Fc1ccc(OCC2C3COCC32)c(C2CCN([C@@H]3COC4(C3)CN(c3nnco3)C4)CC2)c1` (stereo partly drawn) [Example 2Z, (7S)-7-(4-(2-((3-oxabicyclo[3.1.0]hexan-6-yl)methoxy)-5-fluorophenyl)piperidin-1-yl)-2-(1,3,4-oxadiazol-2-yl)-5-oxa-2-azaspiro[3.4]octane], the Emax is 0% in test [1], 0% in test [2] and 24% in test [3]. The 50% effective concentration (EC50) is over 25 µM in test [1], over 25 µM in test [2] and 0.76 µM in test [3].
Regarding `Fc1cc(F)c(OC2CC3(COC3)C2)c(C2CCN([C@@H]3COC4(C3)CN(c3nnco3)C4)CC2)c1` [Example 2AA, (S)-7-(4-(2-((2-oxaspiro[3.3]heptan-6-yl)oxy)-3,5-difluorophenyl)piperidin-1-yl)-2-(1,3,4-oxadiazol-2-yl)-5-oxa-2-azaspiro[3.4]octane], the Emax in test [1] came to 0%; in test [2] it was 0%; in test [3] it was 22%. Besides, the EC50 is over 25 µM in test [1], over 25 µM in test [2] and 7.98 µM in test [3].
Turning to `c1ccc([C@@H]2CCOC2)c(C2CCN([C@@H]3COC4(C3)CN(c3nnco3)C4)CC2)c1` (single isomer, unassigned) [Example 3A, (S)-2-(1,3,4-oxadiazol-2-yl)-7-(4-(2-((S)-tetrahydrofuran-3-yl)phenyl)piperidin-1-yl)-5-oxa-2-azaspiro[3.4]octane or (S)-2-(1,3,4-oxadiazol-2-yl)-7-(4-(2-((R)-tetrahydrofuran-3-yl)phenyl)piperidin-1-yl)-5-oxa-2-azaspiro[3.4]octane], in test [1], the “M5 FDSS PA %” value amounted to 0% and the EC50 is over 25 µM. In addition, in test [2], the “M3 FDSS PA %” value was 0% and the EC50 is over 25 µM. Also, in test [3], the EC50 came out at 1.57 µM and the “M2 FDSS PA %” value was 35%.
